{"source": "patent US6914045B2", "about": "“Glycopeptide antibiotics” (Wyeth Holdings Corporation, priority 2001, dated 2005)", "experiment_in_all_cases": "in vitro antibacterial evaluation, MIC by broth dilution", "assay_type_in_all_cases": "cell-based", "key": {"Streptococcus sp.": {"system": "Streptococcus sp.", "conditions": "broth dilution, 18 hours at 35° C.", "outline": "(§1)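 Broth dilution per NCCLS M7-A2 in Mueller-Hinton II medium, inoculum 5×10^5 CFU/mL, antibiotic range 64-0.06 μg/mL. MIC taken as lowest concentration inhibiting growth; Gram-positive panel includes recent clinical isolates resistant to methicillin, penicillin and/or vancomycin.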"}, "Enterococcus sp.": {"system": "Enterococcus sp.", "conditions": "broth dilution, 18 hours at 35° C.", "outline": "as §1"}, "Staphylococcus sp.": {"system": "Staphylococcus sp.", "conditions": "broth dilution, 18 hours at 35° C.", "outline": "as §1"}, "Escherichia coli": {"system": "Escherichia coli", "conditions": "18 hours at 35° C.", "outline": "as §1"}}}
{"compound": "CC(c1ccccc1)C1NC(=O)CNC(=O)C(CO)NC(=O)C(C(O)C2CNC(=N)N2C2OC(CO)C(O)C(O)C2O)NC(=O)C(C(O)C2CNC(=N)N2)NC(=O)C(Cc2ccc(OC3OC(CO)C(OC4OC5COC(c6cccc(O)c6)OC5C(O)C4O)C(O)C3O)cc2)NC1=O", "note": "(stereo not drawn) [Example 136, Cyclo[glycyl-β-methylphenylalanyl-O-[4-O-[4,6-O-(3-hydroxybenzylidene)hexopyranosyl]-hexopyranosyl]tyrosyl-3-(2-iminoimidazolidin-4-yl)seryl-3-(3-hexopyranosyl-2-iminoimidazolidin-4-yl)serylseryl]]", "values": [{"measurement": "MIC Streptococcus agalactiae (GC 4564)", "setting": "Streptococcus sp.; Streptococcus agalactiae (GC 4564)", "result": 8, "unit": "µg/mL"}, {"measurement": "MIC Streptococcus pneumoniae (ATCC 6301)", "setting": "Streptococcus sp.; Streptococcus pneumoniae (ATCC 6301)", "result": 2, "unit": "µg/mL"}, {"measurement": "MIC Streptococcus pneumoniae (GC 1894)", "setting": "Streptococcus sp.; Streptococcus pneumoniae (GC 1894)", "result": 1, "unit": "µg/mL"}, {"measurement": "MIC Streptococcus pneumoniae (GC 4565)", "setting": "Streptococcus sp.; Streptococcus pneumoniae (GC 4565)", "result": 4, "unit": "µg/mL"}, {"measurement": "MIC Streptococcus pyogenes (GC 4563)", "setting": "Streptococcus sp.; Streptococcus pyogenes (GC 4563)", "result": 8, "unit": "µg/mL"}, {"measurement": "MIC Streptococcus pneumoniae (ATCC 6301)", "setting": "Streptococcus sp.; strain ATCC 6301", "result": 2, "unit": "µg/mL"}, {"measurement": "MIC Streptococcus pneumoniae (GC 1894)", "setting": "Streptococcus sp.; strain GC 1894", "result": 1, "unit": "µg/mL"}, {"measurement": "MIC Streptococcus pyogenes (GC 4563)", "setting": "Streptococcus sp.; strain GC 4563", "result": 8, "unit": "µg/mL"}, {"measurement": "MIC Streptococcus agalactiae (GC 4564)", "setting": "Streptococcus sp.; strain GC 4564", "result": 8, "unit": "µg/mL"}, {"measurement": "MIC Streptococcus pneumoniae (GC 4565)", "setting": "Streptococcus sp.; strain GC 4565", "result": 4, "unit": "µg/mL"}, {"measurement": "MIC Enterococcus avium (GC 4558)", "setting": "Enterococcus sp.; Enterococcus avium (GC 4558)", "result": 64, "unit": "µg/mL"}, {"measurement": "MIC Enterococcus faecalis (ATCC 29212)", "setting": "Enterococcus sp.; Enterococcus faecalis (ATCC 29212)", "result": ">64", "unit": "µg/mL"}, {"measurement": "MIC Enterococcus faecalis (GC 2242)", "setting": "Enterococcus sp.; Enterococcus faecalis (GC 2242)", "result": 64, "unit": "µg/mL"}, {"measurement": "MIC Enterococcus faecalis (GC 2691)", "setting": "Enterococcus sp.; Enterococcus faecalis (GC 2691)", "result": ">64", "unit": "µg/mL"}, {"measurement": "MIC Enterococcus faecalis (GC 3059)", "setting": "Enterococcus sp.; Enterococcus faecalis (GC 3059)", "result": ">64", "unit": "µg/mL"}, {"measurement": "MIC Enterococcus faecalis (GC 4552)", "setting": "Enterococcus sp.; Enterococcus faecalis (GC 4552)", "result": ">64", "unit": "µg/mL"}, {"measurement": "MIC Enterococcus faecalis (GC 4553)", "setting": "Enterococcus sp.; Enterococcus faecalis (GC 4553)", "result": ">64", "unit": "µg/mL"}, {"measurement": "MIC Enterococcus faecalis (GC 4554)", "setting": "Enterococcus sp.; Enterococcus faecalis (GC 4554)", "result": ">64", "unit": "µg/mL"}, {"measurement": "MIC Enterococcus faecalis (GC 6189)", "setting": "Enterococcus sp.; Enterococcus faecalis (GC 6189)", "result": 64, "unit": "µg/mL"}, {"measurement": "MIC Enterococcus faecium (GC 2243)", "setting": "Enterococcus sp.; Enterococcus faecium (GC 2243)", "result": ">64", "unit": "µg/mL"}, {"measurement": "MIC Enterococcus faecium (GC 4556)", "setting": "Enterococcus sp.; Enterococcus faecium (GC 4556)", "result": 64, "unit": "µg/mL"}, {"measurement": "MIC Enterococcus faecium (GC 4557)", "setting": "Enterococcus sp.; Enterococcus faecium (GC 4557)", "result": 8, "unit": "µg/mL"}, {"measurement": "MIC Enterococcus faecalis (ATCC 29212)", "setting": "Enterococcus sp.; strain ATCC 29212", "result": ">64", "unit": "µg/mL"}, {"measurement": "MIC Enterococcus faecalis (GC 2242)", "setting": "Enterococcus sp.; strain GC 2242", "result": 64, "unit": "µg/mL"}, {"measurement": "MIC Enterococcus faecium (GC 2243)", "setting": "Enterococcus sp.; strain GC 2243", "result": ">64", "unit": "µg/mL"}, {"measurement": "MIC Enterococcus faecalis (GC 2691)", "setting": "Enterococcus sp.; strain GC 2691", "result": ">64", "unit": "µg/mL"}, {"measurement": "MIC Enterococcus faecalis (GC 3059)", "setting": "Enterococcus sp.; strain GC 3059", "result": ">64", "unit": "µg/mL"}, {"measurement": "MIC Enterococcus faecalis (GC 4552)", "setting": "Enterococcus sp.; strain GC 4552", "result": ">64", "unit": "µg/mL"}, {"measurement": "MIC Enterococcus faecalis (GC 4553)", "setting": "Enterococcus sp.; strain GC 4553", "result": ">64", "unit": "µg/mL"}, {"measurement": "MIC Enterococcus faecalis (GC 4554)", "setting": "Enterococcus sp.; strain GC 4554", "result": ">64", "unit": "µg/mL"}, {"measurement": "MIC Enterococcus faecium (GC 4556)", "setting": "Enterococcus sp.; strain GC 4556", "result": 64, "unit": "µg/mL"}, {"measurement": "MIC Enterococcus faecium (GC 4557)", "setting": "Enterococcus sp.; strain GC 4557", "result": 8, "unit": "µg/mL"}, {"measurement": "MIC Enterococcus avium (GC 4558)", "setting": "Enterococcus sp.; strain GC 4558", "result": 64, "unit": "µg/mL"}, {"measurement": "MIC Enterococcus faecalis (GC 6189)", "setting": "Enterococcus sp.; strain GC 6189", "result": 64, "unit": "µg/mL"}, {"measurement": "MIC Staphylococcus aureus (ATCC 29213)", "setting": "Staphylococcus sp.", "result": 16, "unit": "µg/mL"}, {"measurement": "MIC Staphylococcus aureus (GC 1131)", "setting": "Staphylococcus sp.", "result": 16, "unit": "µg/mL"}, {"measurement": "MIC Staphylococcus aureus (GC 3051)", "setting": "Staphylococcus sp.", "result": 16, "unit": "µg/mL"}, {"measurement": "MIC Staphylococcus aureus (GC 3053)", "setting": "Staphylococcus sp.", "result": 32, "unit": "µg/mL"}, {"measurement": "MIC Staphylococcus aureus (GC 4541)", "setting": "Staphylococcus sp.", "result": 8, "unit": "µg/mL"}, {"measurement": "MIC Staphylococcus aureus (GC 4542)", "setting": "Staphylococcus sp.", "result": 16, "unit": "µg/mL"}, {"measurement": "MIC Staphylococcus aureus (GC 4544)", "setting": "Staphylococcus sp.", "result": 16, "unit": "µg/mL"}, {"measurement": "MIC Staphylococcus aureus (GC 4545)", "setting": "Staphylococcus sp.", "result": 16, "unit": "µg/mL"}, {"measurement": "MIC Staphylococcus aureus (GC 1131)", "setting": "Staphylococcus sp.; inoculum 5×10^5 CFU/mL, strain GC 1131", "result": 16, "unit": "µg/mL"}, {"measurement": "MIC Staphylococcus aureus (ATCC 29213)", "setting": "Staphylococcus sp.; strain ATCC 29213", "result": 16, "unit": "µg/mL"}, {"measurement": "MIC Staphylococcus aureus (GC 3051)", "setting": "Staphylococcus sp.; strain GC 3051", "result": 16, "unit": "µg/mL"}, {"measurement": "MIC Staphylococcus aureus (GC 3053)", "setting": "Staphylococcus sp.; strain GC 3053", "result": 32, "unit": "µg/mL"}, {"measurement": "MIC Staphylococcus aureus (GC 4541)", "setting": "Staphylococcus sp.; strain GC 4541", "result": 8, "unit": "µg/mL"}, {"measurement": "MIC Staphylococcus aureus (GC 4542)", "setting": "Staphylococcus sp.; strain GC 4542", "result": 16, "unit": "µg/mL"}, {"measurement": "MIC Staphylococcus aureus-SMITH (GC 4543)", "setting": "Staphylococcus sp.; strain GC 4543", "result": 16, "unit": "µg/mL"}, {"measurement": "MIC Staphylococcus aureus (GC 4544)", "setting": "Staphylococcus sp.; strain GC 4544", "result": 16, "unit": "µg/mL"}, {"measurement": "MIC Staphylococcus aureus (GC 4545)", "setting": "Staphylococcus sp.; strain GC 4545", "result": 16, "unit": "µg/mL"}, {"measurement": "MIC Staphylococcus haemolyticus (GC 4546)", "setting": "Staphylococcus sp.; strain GC 4546", "result": 16, "unit": "µg/mL"}, {"measurement": "MIC Coagulase Negative Staphylococcus (GC 4547)", "setting": "Staphylococcus sp.; strain GC 4547", "result": 8, "unit": "µg/mL"}, {"measurement": "MIC Coagulase Negative Staphylococcus (GC 4548)", "setting": "Staphylococcus sp.; strain GC 4548", "result": 8, "unit": "µg/mL"}, {"measurement": "MIC Coagulase Negative Staphylococcus (GC 4549)", "setting": "Staphylococcus sp.; strain GC 4549", "result": 4, "unit": "µg/mL"}, {"measurement": "MIC Coagulase Negative Staphylococcus (GC 4551)", "setting": "Staphylococcus sp.; strain GC 4551", "result": 32, "unit": "µg/mL"}, {"measurement": "MIC Coagulase Negative Staphylococcus (GC 6257)", "setting": "Staphylococcus sp.; strain GC 6257", "result": 4, "unit": "µg/mL"}, {"measurement": "MIC Staphylococcus aureus-SMITH (GC 4543)", "setting": "Staphylococcus sp.; strain SMITH GC 4543", "result": 16, "unit": "µg/mL"}, {"measurement": "MIC Escherichia coli (ATCC 25922)", "setting": "Escherichia coli; strain ATCC 25922", "result": ">64", "unit": "µg/mL"}, {"measurement": "MIC Escherichia coli (GC 4559)", "setting": "Escherichia coli; strain GC 4559", "result": ">64", "unit": "µg/mL"}, {"measurement": "MIC Escherichia coli (GC 4560)", "setting": "Escherichia coli; strain GC 4560", "result": 4, "unit": "µg/mL"}]}
